Patent publication US9827190B2, “Intradermal delivery of immunological compositions comprising toll-like receptor 7 agonists” (GLAXOSMITHKLINE BIOLOGICALS SA, priority 2013, dated 2017)

System: X181 H1N1 Cal, X187 H3N2 Perth and B/Brisbane
Assay type: in vivo, Balb/c mice
Conditions: adjuvant dose 100 μg, 20 μl

## Cc1ccc2c(c1)nc(N)c1ncc(CCc3ccc(OCCOCCOCCC(F)(F)P(=O)(O)O)cc3C)cc12 [T1b]
  immune response compared to both intradermal or intramuscular immunization using antigen alone: significantly improved immune response
